Where “and” joins values, the source holds several entries; their conditions need not be identical. Equal values may be shown once.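 Test compounds were applied to cells in 96-well plates for 48 hours at 5 doses. GI50 marks 50% less growth. TGI: total growth inhibition.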 Where only a bound is given, the exact number is not on record here.

Common to all, as to assay: DTP human tumour cell line panel, 48 h
Assay [1] has as its system DLD-1 colon.
Assay [2] concerns HOP-92 NSCLC.
Assay [3] deals with SNB-19 CNS.
Assay [4] deals with RXF 393 renal.
Assay [5] relates to ACHN renal.
The test system of assay [6] is HOP-62 NSCLC.
Assay [7] deals with NCI-H522 lung.
For assay [8], the system named is HL-60(TB) leukemia.
Assay [9] has as its system U251 CNS.
Assay [10] has as its system DMS 273 small cell lung.

For `C[C@H](OCc1ccccc1)C(=O)N1CCS(=O)(=O)N2CCC[C@@H]2C1=O`, the concentration for total growth inhibition (TGI) in assay [1], in assay [2], in assay [3], in [4], in [5] and in [6] was > 100 µM each time. The concentration for total growth inhibition (TGI) in assay [7], in [8] and in assay [9] was > 100 µM in each case.
On to `Cc1cn(C2CC3C(COCN3O)O2)c(=O)[nH]c1=O` (stereo not drawn), for which the total growth inhibition concentration (TGI) in assay [3], in assay [4], in assay [5], in [6], in assay [10] and in [8] was > 100 µM each time. Also, the TGI in assay [9] was > 100 µM.
In the case of `CCOC(C[C@H](O[Si](C)(C)C(C)(C)C)[C@H]1COC(=S)S1)OCC`, the total growth inhibition concentration (TGI) is > 100 µM in [3]; > 100 µM in assay [5]; > 100 µM in assay [6]; 73.9 µM in assay [10]; 55.6 µM in [7]; > 100 µM in assay [8]. The TGI in assay [9] was > 100 µM.
Regarding `CCCCCCCCCCCCCCCC(=O)OCC1OC(n2cc(F)c(=O)[nH]c2=O)C(N)C(O)C1O` (stereo not drawn), the total growth inhibition concentration (TGI) was 37.1 µM in [1]; 38.9 µM in [2]; 39.2 µM in assay [3]; 33.9 µM in [5]; 37.4 µM in assay [6]; 31.7 µM in assay [7]. The values for the TGI in assay [8] and in assay [9] were 37.4 µM and 32.4 µM, respectively.
Take `CCCCCCC[CH2][Sn]([CH2]CCCCCCC)([O]c1cccc2cccnc12)[O]c1cccc2cccnc12`: the GI50 was 1.31 µM in assay [1]; 2.94 µM in [3]; 2.06 µM in assay [4]; 2.98 µM in [5]; 2.11 µM in assay [6]; 1.95 µM in assay [10]. Further, the GI50 was 0.605 µM in assay [7] and 1.72 µM in [9]. Moreover, the total growth inhibition concentration (TGI) amounted to 2.83 µM in assay [1]; 9.31 µM in assay [3]; 8.07 µM in assay [4]; 11.1 µM in [5]; 3.67 µM in assay [6]; 3.99 µM in assay [10]. For the same molecule, the values for the TGI in assay [7] and in assay [9] were 3.86 µM and 3.25 µM, respectively.
Take `CN(C(=O)C12C3C4C1C1C2C3C41C(N)=O)C(C)(C)C` (stereo not drawn): the TGI in assay [2], in [3], in [5], in assay [10], in assay [7] and in assay [8] was > 100 µM throughout.
In the case of `CN(C)CCN1C(=O)c2c(c3c4ccccc4n4c3c3c2c2ccccc2n3C2CC(O)C(O)C4(C)O2)C1=O` (stereo not drawn), the GI50 in [2] is 2.6 µM; in assay [3] it was 1.58 µM; in assay [4], 1.89 µM; in assay [5], 0.816 µM; in assay [6] it was 1.24 µM; in assay [7], 0.855 µM. The GI50 in assay [8] was 2.47 µM; in [9] it was 1.04 µM. Besides, the total growth inhibition concentration (TGI) in assay [2] was found to be 11.9 µM; in assay [3], 11.8 µM; in [4], 8.27 µM; in assay [5], 3.37 µM; in [6], 6.73 µM; in [7], 3.66 µM. For the same molecule, the TGI in [8] came out at 12.8 µM; in assay [9], 7.29 µM.
Take `CC1=C(C(=O)Nc2ccc3n[nH]c(C)c3c2)C(c2ccc(C(F)(F)F)cc2)CC(=O)N1` (stereo not drawn): the GI50 in [2] is 0.0117 µM; in [3] it was > 25 µM; in assay [4] it was 6.7 µM; in assay [5] it was > 25 µM; in assay [6], 4.4 µM; in assay [7], 9.13 µM. The GI50 in assay [8] and in assay [9] was > 25 µM throughout. Also, the concentration for total growth inhibition (TGI) was 1.46 µM in assay [2]; > 25 µM in assay [3]; > 25 µM in assay [4]; > 25 µM in [5]; > 25 µM in assay [6]; > 21.5 µM in assay [7]. For the same molecule, the TGI in assay [8] and in assay [9] was > 25 µM each time.
In the case of `CC1=NN(C(=O)c2ccccc2O)C(=O)/C1=C/c1ccc(O)cc1`, the TGI in assay [1] is > 100 µM; in assay [3] it was > 100 µM; in assay [5], > 100 µM; in assay [6], > 100 µM; in assay [7], 17.4 µM; in assay [8], > 41.1 µM. The TGI in [9] was > 100 µM.
`C[C@H]1CC[C@@]2(NC1)O[C@H]1C[C@H]3[C@@H]4CC[C@H]5C[C@@H](O)CC[C@]5(C)[C@H]4CC[C@]3(C)[C@H]1[C@@H]2C`: the concentration for total growth inhibition (TGI) in [2] is > 100 µM; in assay [3], 50 µM and > 100 µM; in assay [4] it was > 50 µM; in assay [5] it was 21.9 µM and > 100 µM; in assay [6], 19.4 µM and > 100 µM; in assay [7], 29.3 µM and > 100 µM. Also, the TGI in assay [8] is 50 µM and > 100 µM; in assay [9], 33.6 µM. The GI50 in [4] is > 50 µM; in assay [5] it was 11.2 µM; in [6] it was 9.72 µM; in assay [7] it was 13.6 µM; in [8] it was 42.5 µM; in assay [9], 11.9 µM.
For the molecule `Cc1ccc(S(=O)(=O)c2c(COC(=O)c3cccc(C)c3)c(-c3ccccc3)nn2C)cc1`, the GI50 in assay [2], in assay [3], in assay [4], in assay [5], in [6] and in assay [7] was > 100 µM throughout. The GI50 in [8] and in [9] was > 100 µM each time. Besides, the TGI in assay [2], in [3], in assay [4], in [5], in assay [6] and in [7] was > 100 µM in each case. Moreover, the concentration for total growth inhibition (TGI) in assay [8] and in assay [9] was > 100 µM each time.
`Cc1[nH]c2ccccc2c1CCCO`: the GI50 in assay [2], in assay [3], in assay [4], in [5], in assay [6] and in assay [7] was > 100 µM throughout. The GI50 in [8] and in assay [9] was > 100 µM in each case. For the same molecule, the concentration for total growth inhibition (TGI) in assay [2], in [3], in assay [4], in [5], in assay [6] and in [7] was > 100 µM throughout. Moreover, the TGI in [8] and in [9] was > 100 µM in each case.

By TGI is commonly meant the concentration giving total growth inhibition. Higher therefore signals lower sensitivity of the cells. As a reminder, the GI50 is the concentration at which growth is held to half of that of the control.

The values above are taken from PubChem BioAssay (NCI).
